One assay deals with PC3 (prostate) cell line. The assay can be described thus: MTT cytotoxicity assay, PC3. The assay is classed as cell-based. The conditions noted are these: MTT assay, 72 hour incubation, read-out: Cytotoxicity PC3 (nM, 72 hour). Here is the method:
(§1) Tumor cell lines were maintained in RPMI1640 medium supplemented with 10% heat-inactivated fetal bovine serum, 2 mM L-glutamine and 1 mM sodium pyruvate. 1800 cells per well were seeded in a volume of 180 μl in a 96-well flat bottom polystyrene plate. The cells were allowed to adhere overnight at 37° C. in a CO2 incubator. Ligands were initially formulated in DMSO, and stocks stored at −80° C. They were then further formulated at lox concentration in RPMI1640 medium. 20 ul of diluted samples were added into each treatment well. On each plate, blank wells with no cells, and untreated wells containing cells, were included. Plates were then cultured at 37° C. in a CO2 incubator for 72 hrs. Cytotoxicity was evaluated using a tetrazolium salt-based assay, the MTT assay. After 72 hours, the supernatant was removed from each well and 200 μl of a sterile filtered 500 μg/ml MTT solution in water added to each well. The plates were then incubated at 37° C. in a CO2 incubator for 4 hrs. The supernatant was then removed and the formazan crystals formed solubilized by adding 150 μl of DMSO to each well. The plate was then read on a plate reader at 540 nm, and percentage cell survival calculated as follows: ((mean absorbance treated wells at concentration x−mean absorbance blank wells)[…](mean absorbance untreated wells at concentration x−mean absorbance blank wells))×100. Data were plotted as concentration in nM vs. % cell survival in Microsoft Excel, and IC50 values (concentration where cell survival is reduced by a half) were determined from the graph.
A general note: Tetrazolium dyes change colour on reduction, which living cells bring about.

Assay [1] relates to FaDu (head and neck cancer) cell line. The assay can be described thus: MTT cytotoxicity assay, FaDu. The assay is classed as cell-based. Particulars: Homo sapiens, MTT assay, 72 hour incubation. How it is done: as §1
For assay [2], the system named is linear double-stranded HexARev DNA fragment. The assay can be described thus: DNA cleavage assay, HexARev fragment. Particulars: ligand concentration 10 μM and 100 nM (FIG. 16). The format is biochemical. How it is done: The ability of a further series of compounds 13, 42, 59, 99 and the PBD dimer Talirine to cross-link DNA was determined using an assay involving a linear double-stranded HexARev fragment (FIG. 15).
The ability of 13 and of a series of compounds to cleave double-stranded DNA was investigated using a modification of the previously established DNA footprinting assay (34). Following an overnight incubation of the ligand-DNA complexes, the mixture was mixed with strand separation buffer containing 10 mM EDTA, 10 mM NaOH, 0.1% bromophenol blue, 80% formamide and incubated at 100° C. for 3 min. The mixture was then immediately cooled on ice and run on an 8% denaturing gel. […] Using the GA marker, these additional bands were identified as cleavage products produced by 13 at certain A sites of the DNA fragment.
The preparation of the TyrT DNA fragment (FIG. 8) and HexARev DNA fragment (FIG. 15) have been previously described (34). Briefly, the sequence which had been cloned into the BamHI site of pUC18 was obtained by cutting with HindIII and EcoRI. Radiolabelled DNA fragments were prepared by filling in the 3′-end of the HindIII site with [α-^32P]dATP using Klenow DNA polymerase (exo-).
The radiolabelled DNA fragment was separated from the remainder of the plasmid DNA on a 6% non-denaturing polyacrylamide gel. The gel (20 cm long, 0.3 mm thick) was run at 400 V in 1×TBE running buffer for about 1-2 h, until the bromophenol blue had run most of the way down the gel. The glass plates were separated and the position of the labelled DNA fragment was established by short (1 min) exposure to an X-ray film. The relevant band was then cut from the gel and the radiolabelled DNA eluted by adding 300 μL 10 mM Tris-HCl, pH 7.5 containing 0.1 mM EDTA and gently agitating overnight at room temperature. The eluted DNA was finally precipitated with ethanol and re-suspended in a suitable volume of 10 mM Tris-HCl, pH 7.5 containing 0.1 mM EDTA buffer so as to give at least 10 counts per second/μL on a hand-held Geiger counter. With fresh plasmid and α-^32P-dATP this process typically generated about 150 μL of radiolabelled fragment DNA. The absolute concentration of the DNA is not important, and it is typically lower than 10 nM.
Compounds such as 13 were synthesised as described above and the PBD dimer Talirine was obtained from Aurum Pharmatech LLC. Stock solution was prepared by dissolving the ligands in DMSO to give a concentration of 10 mM. From this stock solution, working solutions of the desired concentration were prepared by diluting with 10 mM Tris-HCl, pH 7.5 containing 10 mM NaCl.
Radiolabelled DNA (1.5 μL) was mixed with 1.5 μL ligand solution of various concentrations (10 μM-10 nM) and incubated overnight at 37° C.
Labelled DNA (1.5 μL) was mixed with 20 μL sterile water and 5 μL of denaturing loading solution (80% formamide containing 10 mM EDTA, 10 mM NaOH, 0.01% bromophenol blue). The sample was then incubated at 100° C. for 20 min with the micro-centrifuge tube cap open to allow evaporation.
Loading solution (4.5 μL) was added to samples from Section 2.1. The digestion products were boiled for 3 min at 100° C. and quickly cooled on ice prior to electrophoresis. Separation was performed on an 8% denaturing polyacrylamide gel (40 cm long, 0.3 mm thick) at 1500V for about 2 h until the dye reached the bottom of the gel. […]

Molecules are shown by their SMILES. Like-named read-outs stand apart in the source and are kept apart here.

In the case of `COc1cc2c(cc1OCCCC(=O)N1C[C@@H](CCl)c3c1cc(O)c1ccccc31)N=C[C@@H]1CCCCN1C2=O` [Compound 13, (S)-3-(4-((S)-1-(Chloromethyl)-5-hydroxy-1,2-dihydro-3H-benzo[e]indol-3-yl)-4-oxobutoxy)-2-methoxy-7,8,9,10-tetrahydrobenzo[e]-pyrido[1,2-a][1,4]diazepin-12(6aH)-one], the IC50 in the assay on PC3 (prostate) cell line was determined as 1.43 nM; in assay [1] (read-out: Cytotoxicity FaDu (nM, 72 hour)), 1.17 nM. In addition, the “cleavage of HexARev DNA fragment” value in assay [2] is “cleave DNA”.
`COc1cc2c(cc1OCc1cccc(CC(=O)N3C[C@@H](CCl)c4c3cc(O)c3ccccc43)c1)N=C[C@@H]1CCCCN1C2=O` [Compound 42, (S)-3-((3-(2-((S)-1-(Chloromethyl)-5-hydroxy-1,2-dihydro-3H-benzo[e]indol-3-yl)-2-oxoethyl)benzyl)oxy)-2-methoxy-7,8,9,10-tetrahydrobenzo[e]pyrido[1,2-a][1,4]diazepin-12(6aH)-one]: the IC50 came out at 0.03 nM with PC3 (prostate) cell line and 0.01 nM in assay [1] (read-out: IC50 value in FaDu). Further, the “cleavage of HexARev DNA fragment” value in assay [2] is listed as “cleave DNA”.

Source of the values: patent US20240002379A1, “ASYMMETRIC CONJUGATE COMPOUNDS” (Pheon Therapeutics Ltd., priority 2016, published 2024).
